In patent US20170189376A1, “BUTYROYLOXYMETHYL DIETHYL PHOSPHATE COMPOUNDS AND USES THEREOF” (MOR RESEARCH APPLICATIONS LTD., priority 2016, published 2017):

Legend:
[1] = tested on: MyLa cells; assay: Alkaline comet assay, MyLa cells; assay type: cell-based, human; conditions: 96 h after treatment, relative to 24 h
Procedure: (§1) Comet assay using the Trevigen Comet assay kit (Trevigen Inc., Gaithersburg, Md., USA) was done according to the manufacturer's protocol. MyLa or Hut78 cells were treated with drugs, washed, incubated for interval time, washed in PBS, counted and suspended in PBS. 1 ×10^5 cells/ml were incubated with pre-heated low melting agarose for 20 min in 37° C., loaded on a comet-slide and kept in the dark for 30 min at 4° C., in cold lysis solution for another 20 min, and finally for 20 min with unwinding solution in RT. The slides were run with cold fresh alkaline electrophoresis buffer in the COMET-20 electrophoresis system (Scie-Plas, Harvard apparatus, UK) for 20 min in 21 volts, 4° C. Slides were stirred gently and washed twice in dH20 bath for 5 min and in 70% ethanol for 5 min. […] The cells were scored under fluorescence microscope (Nikon eclipse 55i, Tokyo, Japan) at a magnification ×10. Cell scores were analyzed using the software “Comet Assay IV” (perceptive instruments, UK). […] 24h after treating the cells the mean tail moment reaches its maximal level, therefore the percent of repaired damage was calculated as follows: (mean tail moment at 24h)−(mean tail moment at indicated time)/mean tail moment at 24 h. At least a total of 100 cells were measured per time-point. […]

[2] = tested on: Hut78 cells; assay: Alkaline comet assay, Hut78 cells; assay type: cell-based, homo sapiens; conditions: Hut78, 72 h after treatment, relative to 24 h
Procedure: as §1

[3] = tested on: p-KAP1, γH2AX in MyLa cells; assay: Western blot of p-KAP1 and γH2AX, MyLa cells; assay type: cell-based, human; conditions: 1 mM AN-7 2 h, 1 μM Dox 1 h, or AN-7 1 h followed with Dox 1 h
Procedure: Cell fraction—3×10^6cells were suspended in 100 μl hypotonic buffer (HEPES 10 mM, KCl 5 mM, MgCl2 1.5 mM, DTT 1 mM, NP-40 1%), incubated for 15 min in ice, centrifuged and the supernatant fraction was subjected to western blot of pKAP1 and actin. The sediment was washed once with hypotonic buffer followed by suspension in 100 μl of hypertonic buffer (HEPES 10 mM, NaCl 500 mM, MgCl2 1.5 mM, DTT 1 mM, NP-40 1%), incubated for 15 min in ice, centrifuged, supernatant was removed and the sediment was boiled, vortexed for 10 min at 95° C. with sample buffer ×3 for 3 times and subjected to western blot of γH2AX.
(§2) Whole cells extract—Cells were suspended in lysis buffer (Tris-HCl 50 mM, NaCl 150 mM, NP-40 0.5%), incubated for lh on ice, centrifuged and the supernatant was collected. Protease and Phosphatase inhibitors were added to all buffers at a 1:100 dilutions. […] Bands were visualized by Odyssey Infrared Imaging System and the bands intense were normalized to actin.
Next, cells were fractionated and fraction lysate were subjected to western blot of phosphorylated KAP1 (p-KAP1), γH2AX and actin.

[4] = tested on: γH2AX foci in Hut78 cells; assay: γH2AX nuclear foci immunofluorescence, Hut78 cells; assay type: cell-based, homo sapiens; conditions: Hut78, 24 h-72 h after treatment, relative to 3 h
Procedure: MyLa or Hut78 cells were treated with drugs, washed, incubated for interval time, and then 2×10^5cells/m1 were centrifuged with cyto-slides (CytoSlide, Shandon, Thermo, Ma, USA) in CYTOSPIN 4 (Shandon, Thermo scientific, West Palm Beach, USA) for 5 min 1000 rpm. Slides were washed with cold PBS on ice, pre-extracted with cold PBS-NP40-0.2% for 10 min, washed 3 times with cold PBS, fixed with 4% Paraformaldehyde for 10 min at RT, and washed 3 times with PBS. Slides were incubated with anti γ-H2AX, Bethyl A300-081A 1:1000, for 1.5 h in RT, washed twice in PBS-T (0.05% Tween in PBS) and once with PBS, incubated with Donkey anti rabbit IgG Alexa Fluor A-21206 1:700, for 30 min at RT, washed 3 times with PBS, dried gently, covered with 1 drop of Fluorescent mounting medium with DAPI (GBI-labs, WA, USA) and on top with cover glass. Slides were visualized in a light microscope (Olympus BX52, Tokyo, Japan). Foci analysis was performed using ImageJ software and PZfociEZ plugin. % of cells with >5 foci/cell was considered as damaged cells. % of repaired damage was calculated as follows: (% of cells with >5 foci/cell at 3 h)−(% of cells with >5 foci/cell at indicated time)/(% of cells with >5 foci/cell at 3 h). At least a total of 150 cells were measured per time-point.

[5] = tested on: NBS1, Rad51, Mre11, DNA-PK, Ku70 in MyLa cells; assay: Western blot of DSB repair proteins, MyLa cells; assay type: cell-based, human; conditions: 24 and 48 h post treatment
Procedure: as §2
(§3) To address whether AN-7 interfere in DSBs repair by regulating the expression of DSBs repair proteins, Immunoblot was applied for those proteins. MyLa and Hut78 cells were treated as previously described and subjected to western blot of DSBs repair proteins.

[6] = tested on: NBS1, Rad51, Mre11, DNA-PK, Ku70 in Hut78 cells; assay: Western blot of DSB repair proteins, Hut78 cells; assay type: cell-based, homo sapiens; conditions: Hut78, 18 and 24 h post treatment
Procedure: as §2, §3

[7] = tested on: MyLa cells; assay: MTT-based viability assay, MyLa cells; conditions: Homo sapiens, 72 h
Procedure: (§4) MyLa cells (10^4), Hut78 cells (5×10^3), SPBL and NPBL (10^5) were seeded in triplicate in 96-well plates. The PBL were activated with PHA 40 μg/10^6 cell for 24 h before the experiment. […] The cells were then placed in a humidified incubator for 72 h. […] The MTT reagent was added to a final concentration of 0.5 mg/mL, and the cells were incubated for an additional 4 h. Thereafter, 0.1N HCl in isopropanol was added, and cell viability was determined using an ELISA reader (PowerWaveX, BioTek, Winooski, Vt., USA) at a 570 nm wavelength with background subtraction at 630-690 nM.
(§5) Viability and apoptosis curves were based on the averages of at least 3 independent experiments. The standard error (SE) was calculated for each group as follows: SE=standard deviation/√n, where n is number of values in the group. […] Significant differences in selectivity among groups were analyzed by comparing the IC50 values using two-tailed unpaired t-test using Excel or by comparing the differential effects for all the dose response titrations using ANOVA with repeated measures.

[8] = tested on: Hut78 cells; assay: MTT-based viability assay, Hut78 cells; conditions: Homo sapiens, HuT78, 72 h, read-out: IC50 single treatment Dox
Procedure: as §4, §5

[9] = tested on: Sezary syndrome Peripheral blood lymphocytes SPBL; assay: MTT-based viability assay, Sezary PBL (SPBL); conditions: Homo sapiens, Lymphocyte, 72 h, read-out: IC50 single treatment Dox
Procedure: (§6) Peripheral blood was diluted 1:3 in sterile phosphate-buffered saline (PBS). Lymphoprep was added in the same blood volume with a Pasteur pipette, and the sample was centrifuged. PBL were collected from the white median interphase, rinsed twice with PBS, and suspended in RPMI medium with 10 mM HEPES to 2×10^6 cells/mL.
as §4, §5
(§7) NPBL were treated at same molar ratio as SPBL.

[10] = tested on: NPBL; assay: MTT-based viability assay, normal PBL (NPBL)
Procedure: as §6, §4, §5, §7

[11] = tested on: MyLa cells; assay: cells; assay type: cell-based, human; conditions: Homo sapiens
[12] = tested on: caspase 3, PARP, P21 and Bax in MF/SS cell lines; assay: Western blot of pro-apoptotic proteins in MF/SS cell lines; assay type: cell-based, human; conditions: MyLa and Hut78, SAHA 10 μM or AN-7 300 μM
Description: However, there was a stronger signal in response to SAHA.

[13] = tested on: HDAC1; assay: Western blot of HDAC1 protein expression in MF/SS cell lines; assay type: cell-based, human; conditions: MyLa and Hut78, SAHA 10 μM or AN-7 300 μM
[14] = tested on: Acetylated H3; assay: Western blot of acetylated H3 in nuclear lysate of MF/SS cell lines; conditions: MyLa and Hut78, SAHA 10 μM or AN-7 300 μM
Procedure: Cells (5×10^6) were suspended in 300 μL of cytoplasmic buffer (HEPES 10 mM, KCl 10 mM, EDTA 1 mM, EGTA 1 mM, DTT 1 mM). After 20 min of incubation on ice, the mixture was passed 5 times through a 25-G syringe and then centrifuged briefly to obtain the cytoplasmic supernatant.
The nuclear pellet was suspended in 40-60 μL of nuclear buffer (cytoplasmic buffer+10% glycerol), incubated with shaking at 4° C. for 15 min, and centrifuged. The supernatant was collected as a nuclear fraction.
Cell extracts were separated by SDS-polyacrylamide gel electrophoresis (SDS-PAGE), transferred to a nitrocellulose membrane, and subjected to immunoblot with primary and secondary antibodies, as listed in table 1.

[15] = tested on: MyLa cells; assay: FACS analysis with annexin V and PI staining (apoptosis), MyLa cells; conditions: SAHA 10 μM or AN-7 300 μM
Procedure: (§8) The cells (2.5×10^6 cells/mL) were washed in PBS and binding buffer and were resuspended in binding buffer, and of fluorescein isothiocyanate-conjugated annexin V (5 μL) was added to a 100 μL cell suspension for 10-15 min. Incubation was performed at room temperature under light-protected conditions. The cells were then washed in binding buffer and were resuspended in the binding buffer and propidium iodide (PI) (5 μL) was added. The samples were analyzed by flow cytometry (FACS Calibur 4.1.6, Becton Dickinson): fluorescein-labeled annexin V at a 530 nm wavelength, and PI at a 585 nm wavelength. The percentage of cells was calculated by their distribution in a fluorescence dot plot generated with FCS Express 4 software (De Novo Software, Los Angeles, Calif., USA). Early (annexin V-positive) and late (annexin V+PI-positive) apoptotic cells were summed to yield the total number of apoptotic cells.

[16] = tested on: Hut78 cells; assay: FACS analysis with annexin V and PI staining (apoptosis), Hut78 cells; conditions: Hut78; SAHA 10 μM or AN-7 300 μM
Procedure: as §8

SMILES | damage repair (DNA breaks, mean tail moment) [1] | repair of DNA breaks (mean tail moment) [2] | induction and clearance of p-KAP1 [3] | induction and clearance of γH2AX [3] | percentage of repaired damage (γH2AX foci) [4] | expression of NBS1, Mre11, Rad51 and DNA-PK [5] | expression of NBS1 and DNA-PK [6] | IC50 ([7]; read-out: IC50 single treatment Dox) | IC50 [8] | IC50 [9] | IC50 ([10]; Homo sapiens, 72 h, read-out: IC50 single treatment Dox) | IC50 ([11]; 24 h, read-out: IC50 Long exposure) | IC50 ([11]; read-out: IC50 Short exposure) | expression of pro-apoptotic proteins (western blot) [12] | HDAC1 expression level [13] | IC50 ([7]; read-out: IC50 single treatment (HDACI)) | NPBL survival at high doses ([10]; high doses lethal to Hut78 and MyLa cells) | expression of acetylated H3 [14] | apoptosis [15] | apoptosis [16]
COc1cccc2c1C(=O)c1c(O)c3c(c(O)c1C2=O)C[C@@](O)(C(=O)CO)C[C@@H]3O[C@H]1C[C@H](N)[C@H](O)[C@H](C)O1 [Dox, doxorubicin, reference compound] | about 72% | about 50% | detected at 1-3 hours and declined after 24 hours | clearance of γH2AX observed at 24 h | 77.9% | did not affect the expression of DSB repair proteins | did not affect the expression of DSB repair proteins | 19 ± 1 nM | 27 ± 2.6 nM | 68.2 ± 10.8 nM | 399 ± 24.3 nM | – | – | – | – | – | – | – | – | –
O=C(CCCCCCC(=O)Nc1ccccc1)NO [SAHA, Suberoylanilide hydroxamic acid, reference compound] | – | – | – | – | – | – | – | – | – | – | – | 2.3 ± 0.08 µM | 33 ± 3.7 µM | cleavage of caspase 3 and poly ADP-ribose polymerase (PARP) and the production of P21 and Bax | downregulated | 2200 ± 100 nM | lethal to all cells | induced | about 60% | about 60%
